Results from ChEMBL document CHEMBL3301461, “MMV Malaria Box thermal shift screening” (2015).

How the values were obtained:
Leishmania donovani = assay: (§1) MMV: Thermal shift assay for identifying inhibitors
Plasmodium falciparum = assay: as §1; conditions: 3D7

Row | ΔTm (Leishmania donovani) [°C] | ΔTm (Plasmodium falciparum) [°C] | Structure (SMILES)
1 | 2.5 | – | CCOc1ccc(C2N(C)c3ccccc3N2C)cc1
2 | 2.4 | – | O=C(NC1CCN(Cc2ccccc2)CC1)c1cc(-c2cccnc2)nc2ccc(Cl)cc12
3 | – | 2 | CCC(O)c1ccc(Br)cc1NC(=O)c1cccc(Cl)c1 (centres undefined)
4 | 4 | – | Cc1ccc(Nc2nc(N)c3ccccc3n2)cc1Cl
5 | – | 2 | COc1cccc(Nc2nc(NCCO)c3ccccc3n2)c1
6 | – | 2.7 | COc1cc2cc(C(=O)Nc3ccccc3)c(N)nc2cc1OC
7 | – | 2.3 | CC(C)(C)C(=O)Nc1ccc(C(=O)Nc2cccc(-c3nc4ccccc4[nH]3)c2)cc1
8 | – | 2.5 | FC(F)(F)c1cccc(Nc2nc3ccccc3nc2Nc2cccc(C(F)(F)F)c2)c1
9 | – | 12.4 | CCN(Cc1ccccc1)C1CCN(Cc2cc(Br)ccc2O)CC1
10 | – | 3 | O=C(NC1CCN(Cc2ccccc2)CC1)c1cc(-c2ccncc2)nc2ccc(Cl)cc12
11 | – | 2.2 | O=C(Nc1ccccc1O)c1ccc(Oc2cccc(C(=O)Nc3ccccc3O)c2)cc1
12 | 3.3 | – | CCOc1cc2c(cc1OCC)C(c1cc(C)c(O)c(C)c1)NCC2 (centres undefined)
13 | – | 2.2 | CC1CCN(Cc2ccc(NC(=O)c3cc4ccc5cccnc5c4[nH]3)cc2)CC1
14 | – | 2.9 | CCOc1cccc(C(=O)Nc2ccc(-c3nc4ccccc4[nH]3)cc2)c1
15 | – | 2.5 | COc1cccc(C(=O)Nc2ccc(-c3nc4ccccc4[nH]3)cc2)c1
16 | 2.2 | – | Cc1cc(C)cc(Nc2cc(C)nc3nc(C(F)(F)F)nn23)c1
17 | – | 2.4 | CC1CCCCN1CCCNC(=O)c1ccc2c(c1)sc1nc(-c3ccc(F)cc3)cn12 (centres undefined)

Row | ΔTm (Leishmania donovani) [°C] | ΔTm (Plasmodium falciparum) [°C] | Structure (SMILES)
18 | – | 2.1 | Cc1sc2ncnc(Sc3nc4ccccc4[nH]3)c2c1C
19 | – | 2.6 | COc1cc(OC)cc(C(=O)Nc2ccc(-c3nc4ccccc4[nH]3)cc2)c1
20 | – | 12.7 | Cc1cccc(-n2ncc3c(O)nc(-n4nc(C)cc4NC(=O)c4cc5ccccc5o4)nc32)c1
21 | – | 3.1 | CCOC(=O)c1cnc2ccc(Cl)cc2c1NCCCN(C)C
22 | – | 3.6 | O=C(Nc1ccc(Br)cc1)Nc1cccc(Cl)c1
23 | – | 2.2 | COc1ccc(-c2cc(=O)oc3c4c(ccc23)OCN(Cc2ccc(F)cc2)C4)cc1
24 | – | 2.4 | Cc1ccc(NC(=O)Nc2cccc(Cl)c2)cc1F
25 | – | 7.5 | COc1ccc2c(c1)OC(O)(C(F)(F)C(F)(F)F)CC2=O (centres undefined)
26 | – | 2 | CCCN(CCC)CCCNC(=O)c1cc2c(-c3ccc(OC)c(OC)c3)nn(C)c2s1
27 | – | 3.7 | FC(F)(F)c1cccc(Nc2nc(-c3ccccc3)nc3ncccc23)c1
28 | – | 2.4 | COc1ccc(Nc2nc(NCc3ccccc3)c3ccccc3n2)cc1
29 | – | 2.3 | CCN(CC)CCNc1ncnc2c1[nH]c1ccc(Cl)cc12
30 | 4.8 | – | COc1cc(C(=O)Nc2ccc(-c3nc4ccccc4[nH]3)cc2)cc(OC)c1OC
31 | 2.4 | – | COc1ccc(C(=O)NC(c2ccc(Cl)cc2Cl)c2cc(Cl)c3cccnc3c2O)cc1 (centres undefined)
32 | – | 4.1 | CCN(CC)CCCNc1nc(-c2ccc(Cl)cc2)nc2ccccc12
33 | – | 5.4 | COc1ccc(C=C2SC(=N)N(c3ccccc3OC)C2=O)cc1
34 | – | 3.1 | O=c1cc(NC2CCN(CCCc3ccccc3)CC2)c2cc(Cl)ccc2o1
